{"source": "patent US20260344665A1", "about": "“FUNGICIDAL COMPOUND” (priority 2022, published 2026)", "key": {"[1]": {"system": "Blumeria graminis f.sp. tritici", "assay": "Powdery mildew assay in wheat (haustoria formation)", "format": "in vivo", "details": "Blumeria graminis, 48 h, read-out: haustoria formation (% relative to control)"}, "[2]": {"system": "ROS production in wheat leaf discs", "assay": "Reactive oxygen species (ROS) burst assay with wheat leaf discs", "details": "INA 100 μM; treated vs. control, 40 minutes"}, "Zymoseptoria tritici": {"system": "Zymoseptoria tritici", "assay": "Leaf painting assay in wheat seedling, Zymoseptoria tritici preventive", "format": "in vivo", "details": "Experiment 1; 188.00 ppm; tip segment; preventive", "description": "(§1) Wheat seedlings of the variety Riband (for Zymoseptoria tritici trials) or variety Arina (for Puccinia recondite trials) were grown in the glasshouse until 14d after seeding. At this time, such seedlings usually have a first leaf fully emerged (designated L1), a second leaf fully emerged (L2) and a third leaf (L3) that is partially emerged and in the process of development. Using a permanent pen, two dots were applied on the second leaf such as to generate three segments of roughly equal size: Segment A (at the base), segment B (middle part) and segment C (tip of the leaf). A stock solution of the compound of Formula (I) was produced in water and of benzovindiflupyr in DMSO at a concentration of 10,000 ppm. […] The diluted compound was applied to the middle segment of L2 using a conventional cotton stick; the cotton stick was soaked in the diluted compound and rubbed several times on the adaxial leaf surface between the two marks. One day later, the complete plant was inoculated with a fungal spore suspension using a paint brush. The spore suspension was applied until before run-off.\nFor infection with Zymoseptoria tritici (preventive), the test plants were inoculated by spraying a spore suspension on them one day after application (1.5 Mio spores per ml in water supplemented with 0.01% Tween20). After an incubation period of 4 days at 22 °C/21 °C (day/night) and 95% rh, the inoculated test plants were kept at 22 °C/21 °C (day/night) and 70% rh in a greenhouse.\n(§2) The three segments of the leaf were evaluated individually."}, "[3]": {"system": "Puccinia recondita f. sp. tritici", "assay": "Leaf painting assay in wheat seedling, Puccinia recondita preventive", "format": "in vivo", "details": "188.00 ppm, preventive", "description": "as §1\nFor infection with Puccinia recondita (preventive): The test plants were inoculated by spraying them with a spore suspension one day after application (spore suspension at 80,000 spores per ml in water supplemented with Tween20 at 0.1%). After an incubation period of 1 day at 20 °C and 95% rh, the inoculated test plants were kept at 20 °C and 60% rh in a greenhouse.\nas §2"}, "Parastagonospora nodorum": {"system": "Parastagonospora nodorum", "assay": "Mixture with malonomicin, leaf disc, Parastagonospora nodorum preventive", "format": "in vivo", "description": "(§3) A stock solution for oligosaccharide compound according to the present invention was produced in water plus 0.025% Tween®20. Malonomicin was produced according to Law et al, 2018 (Nature Catalys is | VOL 1 | DECEMBER 2018 | 977-984). A stock solution of malonomicin was produced in water plus 0.025% Tween®20.\n(§4) Assays to test efficacy of mixtures of the compound of Formula (I) in combination with malonomicin on the control of fungal pathogens in a leaf disc assay were designed for two 24 well plates.\n(§5) Table 11 and Table 12: Outline of 24 well testplate (3) and testplate (4) including concentration of compounds per well. The upper number in the cell indicates the oligosaccharide compound of the present invention concentration (ppm), the lower number malonomicin concentration (ppm). Column (1) holds a dilution series of compound of Formula (I), row (4-D) hold a dilution series of malonomicin. Well 4-D-(1) represents an untreated check. This design was applied for tests including Blumeria graminis f.sp. tritici (EPPO code: ERYSGT) with preventive spray timing and Parastagonospora nodorum (EPPO code: LEPTNO) with preventive spray timing.\n(§6) A first set of master plates with 1× concentrated spray solution of the compound of Formula (I) stock diluted in water with concentrations according to Table 8, Table 9, Table 11 and Table 12, respectively, was prepared. Each well contained 0.025% Tween®20. Accordingly, a second set of master plates with 1× concentrated malonomicin stock diluted in water was prepared. Each well of the second set contained 0.025% Tween®20. Leaf segments placed on agar in 24 well plates are sprayed with 8 ul of solution from the master plate containing compound of Formula (I) and the leaf segments were let to dry, followed 2 hours later by 8 ul of solution from the master plate containing malonomicin. After second sprays have dried, leaf segments are infected with fungal spores to obtain a preventive application timing. Alternatively, leaf segments infected one day before spray of the compounds are used, resulting in a curative spray timing. In addition, several plates were produced where leaf segments were sprayed 2× in absence of test compound (with only Tween®20), representing the untreated check samples. For each leaf segment percent leaf coverage of disease symptoms was assessed. Percent leaf coverage reduction relative to the untreated check was calculated. Efficacy of the mixtures was tested in duplicate and on different fungal species. Reported efficacy values are the average of two replicate results.\nParastagonospora nodorum (EPPO Code: LEPTNO)\n(§7) Wheat (cultivar Kanzler) leaf segments are placed on agar in multiwell plates (24-well format) and sprayed with test solutions (8 ul per well). After drying, the leaf disks are inoculated with a spore suspension of the fungus. After appropriate incubation the activity of a compound is assessed 4 dpi (days after inoculation) as preventive fungicidal activity."}, "Puccinia recondita [4]": {"system": "Puccinia recondita", "assay": "Mixture with malonomicin, leaf disc, Puccinia recondita curative", "format": "in vivo", "details": "foliar, 192 h, read-out: control of fungal growth", "description": "(§8) An additional ingredient having pesticidal activity, for instance fungicidal activity may result in an unexpected synergistic activity. […] The action to be expected E for a given active ingredient combination obeys the so-called COLBY formula and can be calculated as follows (COLBY, S. R. “Calculating synergistic and antagonistic responses of herbicide combination”. Weeds, Vol. 15, pages 20-22; 1967): • ppm=milligrams of active ingredient (=a.i.) per liter of spray mixture • X=% action by active ingredient A) using p ppm of active ingredient • Y=% action by active ingredient B) using q ppm of active ingredient.\n(§9) According to COLBY, the expected (additive) action of active ingredients A)+B) using p+q ppm of active ingredient is:\n(§10) In mathematical terms, synergism corresponds to a positive value for the difference of (O-E). In the case of purely complementary addition of activities (expected activity), said difference (O-E) is zero. A negative value of said difference (O-E) signals a loss of activity compared to the expected activity.\nas §3, §4\n(§11) Table 8 and 9: Outline of 24 well testplate (1) and testplate (2) including concentration of compounds sprayed per well. The upper number in the cell indicates the oligosaccharide compound of the present invention concentration (ppm), the lower number malonomicin concentration (ppm). Column (1) holds a dilution series of compound of Formula (I), row (2-D) hold a dilution series of malonomicin. Well 2-D-(1) represents an untreated check. This design was applied for tests including Puccinia recondita (EPPO code: PUCCRE) with preventive and curative spray timing.\nas §6\nPuccinia recondita (EPPO Code: PUCCRE) with Curative Spray Timing.\nWheat (cultivar Kanzler) leaf segments are placed on agar in multiwell plates (24-well format). The leaf disks are then inoculated with a spore suspension of the fungus. One day after inoculation the test solution is sprayed (8 ul per well). After appropriate incubation the activity of a compound is assessed 8 dpi (days after inoculation) as curative fungicidal activity"}, "[5]": {"system": "Blumeria graminis f.sp. tritici", "assay": "Mixture with malonomicin, leaf disc, Blumeria graminis f.sp. tritici preventive", "format": "in vivo", "details": "foliar, 168 h, read-out: control of fungal growth", "description": "as §3, §4, §5, §6\nBlumeria graminis f.sp. tritici (EPPO Code: ERYSGT) with Preventive Spray Timing\nas §7, with “with spores” for “with a spore suspension”, “assessed 7” for “assessed 4”, “(days post” for “(days after”"}, "Puccinia recondita [6]": {"system": "Puccinia recondita", "assay": "Mixture with malonomicin, leaf disc, Puccinia recondita preventive", "format": "in vivo", "description": "as §8, §9, §10, §3, §4, §11\nas §6, with “In addition, several plates were produced where leaf segments were sprayed 2× in absence of test compound (with only Tween®20), representing the untreated check samples.” left out, “Efficacy of the mixtures was tested in duplicate and on different fungal species. Reported efficacy values are the average of two replicate results.” left out\nWheat (cultivar Kanzler) leaf segments are placed on agar in multiwell plates (24-well format) and sprayed with test solutions (8 ul per well). […] After appropriate incubation the activity of a compound is assessed 8 dpi (days after inoculation) as preventive fungicidal activity."}}, "data": [{"smiles": "O=C(O)c1cc(Cl)nc(Cl)c1", "note": "[INA, 2.6-dichloro-isonicotinic acid, reference compound]", "values": [{"measurement": "activity at 100 µM", "setting": "[1]", "result": 27.6, "unit": "%"}, {"measurement": "Fold change (peak ROS)", "setting": "[2]", "result": 1.8}]}, {"smiles": "Cn1cc(C(=O)Nc2cccc3c2C2CCC3C2=C(Cl)Cl)c(C(F)F)n1", "note": "(centres unmarked) [benzovindiflupyr, reference compound]", "values": [{"measurement": "% reduction fungal growth", "setting": "Zymoseptoria tritici", "result": 99, "unit": "%"}, {"measurement": "% reduction fungal growth", "setting": "[3]; Experiment 2, base segment", "result": 7, "unit": "%"}, {"measurement": "% reduction fungal growth", "setting": "[3]; Experiment 2, middle segment (treated)", "result": 100, "unit": "%"}, {"measurement": "% reduction fungal growth", "setting": "[3]; Experiment 2, tip segment", "result": 100, "unit": "%"}, {"measurement": "% reduction fungal growth", "setting": "[3]; Experiment 3, base segment", "result": 21, "unit": "%"}, {"measurement": "% reduction fungal growth", "setting": "[3]; Experiment 3, middle segment (treated)", "result": 100, "unit": "%"}, {"measurement": "% reduction fungal growth", "setting": "[3]; Experiment 3, tip segment", "result": 100, "unit": "%"}, {"measurement": "% reduction fungal growth", "setting": "[3]; Experiment 4, base segment", "result": 3, "unit": "%"}, {"measurement": "% reduction fungal growth", "setting": "[3]; Experiment 4, middle segment (treated)", "result": 100, "unit": "%"}, {"measurement": "% reduction fungal growth", "setting": "[3]; Experiment 4, tip segment", "result": 100, "unit": "%"}]}, {"smiles": "NC[C@@H]1NC(=O)C(C(=O)CC(NC(=O)[C@@H](N)CO)(C(=O)O)C(=O)O)=C1O", "note": "[malonomicin, {[(2S)-2-amino-3-hydroxypropanoyl]amino} {2-[(5S)-5-(aminomethyl)-4-hydroxy-2-oxo-2,5-dihydro-1H-pyrrol-3-yl]-2-oxoethyl} malonic acid, reference compound]", "values": [{"measurement": "control of fungal growth", "setting": "Parastagonospora nodorum; malonomicin 7.4 ppm solo", "result": 0, "unit": "%"}, {"measurement": "control of fungal growth", "setting": "Parastagonospora nodorum; malonomicin 22.2 ppm solo", "result": 45, "unit": "%"}, {"measurement": "control of fungal growth", "setting": "Parastagonospora nodorum; malonomicin 66.7 ppm solo", "result": 50, "unit": "%"}, {"measurement": "control of fungal growth", "setting": "Parastagonospora nodorum; malonomicin 200 ppm solo", "result": 90, "unit": "%"}, {"measurement": "control of fungal growth", "setting": "Parastagonospora nodorum; malonomicin 600 ppm solo", "result": 95, "unit": "%"}, {"measurement": "inhibition of growth at 0.74 µg/mL", "setting": "Puccinia recondita [4]; malonomicin 0.74 ppm solo", "result": 35, "unit": "%"}, {"measurement": "inhibition of growth at 2.22 µg/mL", "setting": "Puccinia recondita [4]; malonomicin 2.22 ppm solo", "result": 70, "unit": "%"}, {"measurement": "inhibition of growth at 6.67 µg/mL", "setting": "Puccinia recondita [4]; malonomicin 6.67 ppm solo", "result": 100, "unit": "%"}, {"measurement": "inhibition of growth at 20 µg/mL", "setting": "Puccinia recondita [4]; malonomicin 20 ppm solo", "result": 100, "unit": "%"}, {"measurement": "inhibition of growth at 200 µg/mL", "setting": "Puccinia recondita [4]; malonomicin 200 ppm solo", "result": 100, "unit": "%"}, {"measurement": "inhibition of growth at 7.4 µg/mL", "setting": "[5]; malonomicin 7.4 ppm solo", "result": 0, "unit": "%"}, {"measurement": "inhibition of growth at 22.2 µg/mL", "setting": "[5]; malonomicin 22.2 ppm solo", "result": 0, "unit": "%"}, {"measurement": "inhibition of growth at 66.7 µg/mL", "setting": "[5]; malonomicin 66.7 ppm solo", "result": 70, "unit": "%"}, {"measurement": "inhibition of growth at 200 µg/mL", "setting": "[5]; malonomicin 200 ppm solo", "result": 100, "unit": "%"}, {"measurement": "inhibition of growth at 600 µg/mL", "setting": "[5]; malonomicin 600 ppm solo", "result": 75, "unit": "%"}, {"measurement": "control of fungal growth", "setting": "Puccinia recondita [6]; malonomicin 0.74 ppm solo", "result": 0, "unit": "%"}, {"measurement": "control of fungal growth", "setting": "Puccinia recondita [6]; malonomicin 2.22 ppm solo", "result": 10, "unit": "%"}, {"measurement": "control of fungal growth", "setting": "Puccinia recondita [6]; malonomicin 6.67 ppm solo", "result": 80, "unit": "%"}, {"measurement": "control of fungal growth", "setting": "Puccinia recondita [6]; malonomicin 20 ppm solo", "result": 100, "unit": "%"}, {"measurement": "control of fungal growth", "setting": "Puccinia recondita [6]; malonomicin 200 ppm solo", "result": 100, "unit": "%"}]}]}
